{
  "source": "patent US20060128792A1",
  "about": "“Deguelin as a chemopreventive agent for lung cancer” (priority 2002, published 2006)",
  "format_in_all_cases": "cell-based",
  "key": {"[1]": {"system": "COX-2", "assay": "COX-1 and COX-2 expression by northern and western blotting", "conditions": "premalignant cells (1799, squamous HBE); 1 nM, 10 nM or 100 nM", "procedure": "COX-2 on the other hand, is found to be induced and expressed in neoplastic growth. […] Thus, it was determined whether deguelin regulates the expression of COX-2 in lung cancer cells. Normal, premalignant, and malignant lung cancer cells, NHBE, 1799, 1198, and 1170, were treated with 1 nM, 10 nM, or 100 nM deguelin for 1 day and COX-1 and COX-2 expression were analyzed by northern blotting.\nIn this study, the protein and mRNA expression of COX-1 and COX-2 were tested in 1799 and squamous (Sq) HBE cells. These cells were treated with 1 nM, 10 nM, or 100 nM deguelin and the COX-1 and COX-2 RNA and analyzed by northern blotting and western blotting. Equal amount of mRNA in each lane was confirmed by northern blot analysis using GAPDH (data not shown)."}, "[2]": {"system": "PI3K", "assay": "PI3K assay (lipid kinase assay on immunoprecipitate of treated cells)", "conditions": "1799 cells, 10^−7 M deguelin, 1 day", "procedure": "PI3K Assay. 1799 cells cultured in KSFM containing 10^−7 M deguelin for different time periods were lysed in lysis buffer. PI3K was immunoprecipitated from 500 μg of cellular protein using pan-anti-p85 antibody (Upstate Biotechnology, Waltham, Mass.), which coprecipitates the p110 catalytic subunit of PI3K, and subsequent lipid kinase assay was performed as described previously (Sibilia et al., 2000). Briefly, the mixture was incubated with gentle rocking at 4° C. for 12 h, 10 mg of protein A-sepharose (Amersham Pharmacia Biotech) were added, and the incubation was continued for another 2 h. The immunoprecipitates were washed, in tandem, three times with lysis buffer, twice with 0.1 M Tris/HCl, pH 7.5, containing 0.5 M LiCl, and 10 μM sodium vanadate, and twice with 10 mM Tris/HCl, pH 7.5, containing 100 MM NaCl, 10 μM sodium vanadate, and 1 mM EDTA. Adequate amounts of the washed antibody conjugates, in 10 μl, were added to 80 μl of 30 mM Hepes, pH 7.5, containing 125 μM ATP, 10 μCi of [α-^32P] ATP, and 6.25 mM MgCl2, and the reaction was initiated by adding 20 μg of bovine brain extract (Type 1; Sigma) suspended in 10 μl of 30 mM Hepes, pH 7.5. […] The autoradiograms were scanned by a Photodyne image system and quantified using the NIH Image program (version 1.59)."}, "[3]": {"system": "pAkt (Ser473) and pGSK-3β (Ser9) in squamous HBE cells", "assay": "Western blot of pAkt (Ser473) and pGSK-3β (Ser9)", "conditions": "time-dependent", "procedure": "Immunoblotting. Whole cell lysates were prepared in lysis buffer (50 mM N-[2-[…]]-piperazine-N′-[2-ethanesulfonic acid] [HEPES; pH 7.5], 150 mM NaCl, 1.5 mM MgCl2, ImM EDTA, 0.2 mM EGTA, 1% NP40, 10% glycerol, 1 mM dithiothreitol (DTT), 1 mM phenylmethylsulfonyl fluoride, 20 mM sodium fluoride, 5 mM sodium orthovanadate, 10 μg/ml aprotinin, 10 μg/ml leupeptin, 2 μg/ml pepstatin, and 1 mM benzamidine) as described previously (Lee et al., 2002). Equivalent protein concentrations were resolved in sodium dodecyl sulfate-polyacrylamide gels and transferred to a nitrocellulose membrane. After the blocking of transblotted membrane in Tris-buffered saline (TBS) containing 0.05% Tween 20 (TBST) and 5% low fat milk, themembrane was incubated with primary antibody at the appropriate dilution in TBS-5% low-fat milk at 4° C. for 16 h and washed with TBST. The immunoblots were visualized using the ECL kit (Amersham, Inc., Arlington Heights, III) according to the manufacturer's directions. Rabbit polyclonal antibodies against human pAkt (Ser473), Akt, and pGSK-3β (Ser9), and mouse monoclonal antibody against human anti-pMAPK (Thr202/Tyr204) were purchased from Cell Signalinng Technology (Beverly, Mass.). […]\nEffects of Deguelin on Squamous Differentiated HBE Cells. […] It was then determined whether deguelin inhibits the activation of PI3K/Akt pathway in squamous HBE cells. […]"}, "[4]": {"system": "H460", "assay": "MTT assay, growth inhibition by deguelin or deguelin derivatives", "conditions": "H460, 3 days"}},
  "note": "Values joined by “and” are separate entries in the source; they are usually repeats but may differ in a detail not shown here. Identical values can stand only once.",
  "data": [
    {"compound": "COc1cc2c(cc1OC)[C@@H]1C(=O)c3ccc4c(c3O[C@@H]1CO2)C=CC(C)(C)O4", "note": "[Deguelin]", "values": [
      {"measurement": "induced COX-2 expression", "setting": "[1]", "result": "downregulated"},
      {"measurement": "PI3K activity (lipid kinase assay)", "setting": "[2]", "result": "decreased"},
      {"measurement": "elevated levels of pAkt (Ser473) and pGSK-3β (Ser9)", "setting": "[3]", "result": "down-regulated"},
      {"measurement": "Avg. % con", "setting": "[4]; deguelin 10^−6M", "result": 0.17, "unit": "% con"},
      {"measurement": "MTT value, mean of replicates (unheaded line)", "setting": "[4]; deguelin 10^−6M", "result": 0.129},
      {"measurement": "MTT value, replicate (unheaded line)", "setting": "[4]; deguelin 10^−6M", "result": "0.115 and 0.141 and 0.131"},
      {"measurement": "Avg. % con", "setting": "[4]; deguelin 10^−8M", "result": 0.86, "unit": "% con"},
      {"measurement": "MTT value, mean of replicates (unheaded line)", "setting": "[4]; deguelin 10^−8M", "result": 0.635},
      {"measurement": "MTT value, replicate (unheaded line)", "setting": "[4]; deguelin 10^−8M", "result": "0.632 and 0.652 and 0.62"},
      {"measurement": "Avg. % con", "setting": "[4]; deguelin 10^−10M", "result": 1.03, "unit": "% con"},
      {"measurement": "MTT value, mean of replicates (unheaded line)", "setting": "[4]; deguelin 10^−10M", "result": 0.762},
      {"measurement": "MTT value, replicate (unheaded line)", "setting": "[4]; deguelin 10^−10M", "result": "0.783 and 0.761 and 0.743"},
      {"measurement": "Avg. % con", "setting": "[4]; deguelin 10^−12M", "result": 1.06, "unit": "% con"},
      {"measurement": "MTT value, mean of replicates (unheaded line)", "setting": "[4]; deguelin 10^−12M", "result": 0.788},
      {"measurement": "MTT value, replicate (unheaded line)", "setting": "[4]; deguelin 10^−12M", "result": "0.797 and 0.75 and 0.816"}
    ]}
  ]
}
